The results in this text go back to article PMC4403932 (Journal of Medicinal Chemistry, 2015).

Where “and” joins values, the source holds several entries; their conditions need not be identical. Identical values can stand only once. Entries after “also recorded” stand apart in the source; their conditions may differ. Like-named read-outs stand apart in the source and are kept apart here.

Test [1] deals with T1, full length BRD4 (Homo sapiens, UniProt O60885).
T1 construct: NanoLuc-fused full length BRD4 (UniProt code O60885); expressed in transfected cells; host or cells: HEK293
Briefly: NanoBRET assay, NanoLuc-BRD4 full-length / histone H3.3-HaloTag in HEK293 cells. The class given is cell-based. The following applies: up to 33 μM, 18 h. As to the method:
(§1) Twenty hours post-transfection 2 × 10^4 cells were trypsinized, washed with PBS, and exchanged into media containing phenol red-free DMEM, 10% FBS in the absence (control sample), or the presence (experimental sample) of 100 nM NanoBRET 618 fluorescent ligand (Promega). Cell density was adjusted to 2 × 10^5 cells/mL and then replated in a 96-well assay white plate (Corning Costar no. 3917). At the time of replating compound 7d or 11 were added at a final concentration spanning from 0.005 to 33 μM and the plates were incubated for 18 h at 37 °C in the presence of 5% CO2. NanoBRET substrate (Promega) was added to both control and experimental samples at a final concentration of 10 μM. Readings were performed within 5 min using the CLARIOstar reader (BMG Lifetechnologies) equipped with 450/80 nm bandpass and 610 nm long-pass filters. A corrected BRET ratio was calculated and is defined as the ratio of the emission at 610 nm/450 nm for experimental samples (i.e., those treated with NanoBRET fluorescent ligand) subtracted by and the emission at 610 nm/450 nm for control samples (not treated with NanoBRET fluorescent). BRET ratios are expressed as milliBRET units (mBU), where 1 mBU corresponds to the corrected BRET ratio multiplied by 1000.
(Bioluminescence resonance energy transfer reports proximity on the nanometre scale.)

The target in test [2] is T2, BRD9 (Homo sapiens, UniProt Q9H8M2).
T2 construct: made in house
T2 sequence (Q9H8M2 136-240 limits assumed): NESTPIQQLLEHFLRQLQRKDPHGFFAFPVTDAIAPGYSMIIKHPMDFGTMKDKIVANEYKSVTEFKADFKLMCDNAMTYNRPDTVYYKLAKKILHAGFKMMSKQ
Briefly: Isothermal titration calorimetry, BRD9. It is filed as binding. Particulars: for Kd: 50 mM HEPES pH 7.5, 150 mM NaCl, triplicate, read-out: KD; for Kd / N (stoichiometry) / ΔHobs: reverse titration; for LE (ligand efficiency): LE = ΔG/N, N number of non-hydrogen atoms. For orientation: In ITC the heat of successive injections is recorded.

Test [3] concerns the target T2, BRD9. Briefly: Protein stability (thermal) shift assay, BRD9. The class given is binding.
In test [4] the target is T3, PB1(5) (Homo sapiens, UniProt Q86U86).
T3 construct: made in house
Briefly: Protein stability (thermal) shift assay, PB1(5). The class given is binding. The following applies: compound 10 μM, protein 2 μM; average of triplicate.

Test [5] addresses T4, BRDT(2) (Homo sapiens, UniProt Q58F21).
T4 construct: made in house
Briefly: Protein stability (thermal) shift assay, BRDT(2). The class given is binding. Particulars: compound 10 μM, protein 2 μM; average of triplicate; read-out: ΔTm Shift, BRDT(2).

Test [6] addresses T5, PCAF (Homo sapiens, UniProt Q92831).
T5 construct: representative BRDs from other structural subfamilies (family I, PCAF); made in house
T5 sequence (Q92831 723-827 limits assumed): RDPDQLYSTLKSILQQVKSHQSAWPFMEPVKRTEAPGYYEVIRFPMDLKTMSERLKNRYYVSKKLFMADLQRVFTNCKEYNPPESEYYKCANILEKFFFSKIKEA
Briefly: Protein stability (thermal) shift assay, PCAF. It is filed as binding. The following applies: compound 10 μM, protein 2 μM; average of triplicate.

The target of test [7] is T6, BRD9 bromodomain (Homo sapiens, UniProt Q9H8M2).
T6 construct: Q9H8M2-BRD amino acids 120–240; expressed in transfected cells; host or cells: HEK293
T6 sequence (Q9H8M2 120-240): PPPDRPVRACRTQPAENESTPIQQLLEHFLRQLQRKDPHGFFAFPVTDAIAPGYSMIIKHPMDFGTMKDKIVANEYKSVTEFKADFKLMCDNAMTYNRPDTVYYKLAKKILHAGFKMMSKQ
Briefly: NanoBRET assay, NanoLuc-BRD9 bromodomain / histone H3.3-HaloTag in HEK293 cells. The following applies: 0.005-33 μM, 18 h, read-out: cellular (apparent) IC50, displacement of NanoLuc-BRD9 bromodomain from histone H3.3. The class given is cell-based. Here is the method: as §1

T3 sequence (Q86U86 653-763 limits assumed): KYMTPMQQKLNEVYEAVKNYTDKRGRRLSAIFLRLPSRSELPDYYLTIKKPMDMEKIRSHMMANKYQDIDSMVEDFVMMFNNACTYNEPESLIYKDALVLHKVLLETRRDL

In the case of `COc1ccc(Br)cc1-c1nc(N)nc2[nH]cnc12` [Compound 7d, 2-Amino-6-(5-bromo-2-methoxyphenyl)-9H-purine], in test [1], the “displacement of full-length BRD4 from histone H3.3 (in words)” value was “fail to elicit the same effect; also recorded: not completely displaced; also recorded: failing to displace”. In test [2] (ITC, 15 °C), the Kd (in general, the free concentration of one partner at which half of the binding sites on the other are occupied at equilibrium, for simple one-to-one binding) is 397 ± 19 nM; the ΔG entry is reported as “–8.45 kcal/mol”; the “N (stoichiometry)” value came out at 0.97 ± 0.005; the ΔHobs entry is on record as “–9.63 ± 0.06 kcal/mol”. The “LE (ligand efficiency)” value in test [2] is 0.44. Further, in test [3] (compound 10 μM, protein 2 μM, average of triplicate, read-out: ΔTm Shift, BRD9), the ΔTm at 10 µM amounted to 3.6 °C. Moreover, the ΔTm at 10 µM in test [4] was 1.6 °C. In test [5], the ΔTm at 10 µM was determined as 1.8 °C. The ΔTm at 10 µM in test [6] is -0.45 °C. Further, in test [7], the IC50 (in general, the point on the concentration scale where inhibition reaches its midpoint) turned out to be 3500 nM.
Regarding `Nc1nc(-c2cc(Br)cc3c2OCC3)c2nc[nH]c2n1` [Compound 11, 2-Amino-6-(5-bromo-2,3-dihydrobenzo[b]furan-7-yl)-9H-purine], the “displacement of full-length BRD4 from histone H3.3 (in words)” value in test [1] was “fail to elicit the same effect; also recorded: not completely displaced; also recorded: failing to displace”. Further, in test [2] (ITC, 15 °C), the Kd came to 278 ± 15 nM, the TΔS result is given as “–1.63 kcal/mol”, the ΔG result is “–8.65 kcal/mol” and the “N (stoichiometry)” value is recorded as 1.03 ± 0.003. Further, the ΔHobs entry in test [2] (ITC, 15 °C) was “–10.28 ± 0.04 kcal/mol”. The “LE (ligand efficiency)” value in test [2] stood at 0.43. Further, the ΔTm at 10 µM in test [3] (thermal shift, 10 μM compound, 2 μM protein, read-out: ΔTm) amounted to 6.5 °C. The ΔTm at 10 µM in test [4] is 0.8 °C. The ΔTm at 10 µM in test [5] is 4 °C. Besides, the ΔTm at 10 µM in test [6] was determined as 0.9 °C. In addition, the IC50 in test [7] is 480 nM and 477 nM.
